Test results taken from US6703362B1, “Random peptides that bind to gastro-intestinal tract (GIT) transport receptors and related methods” (Cytogen Corporation, priority 1997, dated 2004).
Square brackets hold non-standard residues; d marks the D form. Peptide text beside a SMILES is read from it. * marks the point of attachment. Dansyl = CN(C)c1cccc2c(S(=O)(=O)*)cccc12

Assays:
fixed Caco-2 cells [1] = assay: Inhibition of GST-peptide fusion binding to fixed Caco-2 cells by synthetic peptides; conditions: peptide from 100 μg/ml serially diluted; GST fusion 10 μg
Description: Caco-2 cells were fixed, treated with phenylhydrazine and blocked as described above. […] GST-PAX2 binding was inhibited by ZElan032, ZElan033, and ZElan035.

[2] = Peptide stability in simulated intestinal fluid (SIF); assay type: in vitro ADME
Method: The relative stability for ZElanO3l, ZElanO53 and ZElan054 was determined in simulated intestinal fluid (SIF) SIF was made by dissolving 100 mg of pancreatin (Sigma cat#P-1625, lot# 122H0812)in 8.4 ml of phosphate stock solution, adjusting the pH to 7.5 with 0.2N NaOH and adjusting the volume to 10 ml with water.
Peptide (3.25 mg) was dissolved in 3.25 ml of 10,000 fold diluted SIF solution at 37° C. Aliquots (0.7 ml) of the digestion solution were then withdrawn at <1 min, 1 h, 3 h, and 21 h or 24 h. The samples were quickly passed through a syringe filter (Millipore Millex-GV 0.22 μm, part# SLGV025LS, lot# H2BM95250) and 300 μL of the filtered solution was immediately injected onto a Hewlett-Packard HPLC system equipped with a C-8 column (Applied Biosystems column and guard column: column-p/n 0711-0023 Spheri-5 ODS 5 μm, 220×4.6 mm). The products were eluted at 1.5 ml/min using an acetonitrile-water gradient. The major fluorescent peaks were collected, lyopholized and identified by MS analysis.

[3] = system: P100 fractions harvested from Caco-2 cells; assay: Binding of dansylated peptides to P100 fractions and peptide/particle correlation
Method: Caco-2 cell membrane (P100) and cytosolic (S100) fractions were prepared using a modification of the method described in Kinsella, B. T., O'Mahony, D. J. and G. A. FitzGerald, 1994, J. Biol. Chem. 269(47): 29914-29919. Confluent Caco-2 cell monolayers (grown in 75 cm^2 flasks for up to 1 week at 37° C. and 5% CO2) were washed twice in Dulbecco's PBS (DPBS) and the cells were harvested by centrifugation at 1000 rpm after treatment with 10 mM EDTA-DPBS. The cells were washed 3 times in DPBS and the final cell pellet was resuspended in 3 volumes of ice cold HED buffer (20 mM HEPES (pH 7.67), 1 mM EGTA, 0.5 mM dithiothreitol, 1 mM phenylmethylsulphonyl fluoride (PMSF)). The cells were allowed to swell for 5 min on ice prior to homogenization for 30 sec. The homogenates were centrifuged at 40,000 rpm for 45 min at 4° C. The supernatant (S100) was removed and the pellet (P100) was resuspended in HEDG buffer (20 mM HEPES (pH 7.67), 1 mM EGTA, 0.5 mM dithiothreitol, 100 mM NaCl, 10% glycerol, 1 mM PMSF). Protein concentrations were determined using the Bradford assay (Bradford, M. M., 1976, Anal. Biochem. 72: 248-254).
Binding of peptide and/or peptide-coated PLGA particles to membrane (P100) and cytosolic (S100) fractions was assessed by detection of the dansyl moiety incorporated in the peptide. Costar ninety six well ELISA plates were coated with S100 and P100 fractions (100 μg/ml in 0.05 M NaHCO3) overnight at 4° C. The plates were blocked with 0.5% bovine serum albumin in DPBS for 1 h at room temperature and washed 3 times in 1% BSA-DPBS. […] After washing 3 times in 1% BSA-DPBS 100 μl of TMB substrate (3,3′,5′,5-tetramethylbenzidine; Microwell Peroxidase Substrate System (Kirkegaard and Perry Laboratories 50-76-00)) was added and the optical density was measured at 650 nm at various time intervals.
Binding of dansylated peptides to P100 fractions was assessed to determine if peptide binding was predictive of peptide-coated particle binding.

[4] = system: P100 membrane fractions derived from Caco-2 cells; assay: Dansylated peptide ELISA: relative binding of PAX2 and HAX42 peptides to P100 (ratio to ZElan021); conditions: ratio to ZElan021 = 1.00
How it was run: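 P100 membrane fraction from Caco-2 cells (normally 100 μg/ml) coated in carbonate buffer pH9.6, blocked with 2% Marvel/PBS, then incubated with dansylated peptides. Detection via anti-mouse HRP conjugate and TMB, OD read at 650nm; binding expressed relative to ZElan021.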

[5] = system: fixed Caco-2 or C2BBe1 cells; assay: ELISA of GST fusion proteins on fixed Caco-2 or C2BBe1 cells; assay type: binding
Method: Fixed Caco-2, C2BBe1, and A431 cell plates were prepared by growing cells on tissue culture treated microtiter plates. When cells were confluent, plates were fixed with 10% formaldehyde, washed twice with PBS and stored with 0.5%BSA-PBS at −20° C. […] The standard ELISA procedure was followed at this point.
The standard ELISA procedure was modified as follows. GST proteins were diluted to an appropriate concentration in PBS containing lkBSA and 0.05% Tween20 (1%BPT), titered and incubated one hour at room temperature. Following five washes an anti-GST monoclonal antibody was added (Sigma, St. Louis Clone GST-2 diluted 1:10,000 in 1%BPT) and incubated one hour. After five more washes goat anti-mouse IgG2b-HRP was added (Southern Biotechnology Associates Inc., Birmingham, Ala., diluted 1:4000 in 1%BPT) and incubated one hour. After five washes plates were developed with TMB peroxidase substrate (Kirkegard and Perry, Gaithersburg, Md.). All data is presented with background binding subtracted.

[6] = system: polarized Caco-2 monolayers; assay: Transport of GST-peptide fusions across polarized Caco-2 monolayers (anti-GST ELISA); assay type: in vitro ADME
Method: Transport and uptake of GST-peptide fusions and deletion derivatives across cultured polarized Caco-2 monolayers over 4 hours in HBSS buffer was examined using an anti-GST ELISA assay. In another experiment, transport and uptake of GST-peptide fusions and deletion derivatives across cultured polarized Caco-2 monolayers over 24 hours in serum-free medium (SFM) was examined using an anti-GST ELISA assay.
a) 4 h HBSS study: […] (TER) across the Caco-2 monolayers grown on snapwells (passage 33; 23 days old) was measured to confirm monolayer integrity before beginning the experiment. The medium was removed and the cells were washed once with bHBSS. bHBSS containing 100 μM chloroquine was added and the cells were incubated for 2 h at 37° C. The bHBSS+chloroquine was replaced with 0.5 ml bHBSS containing GST-peptide fusions (10 μg/ml) and the cells were incubated as before. […] At 4h, TER was measured, the apical medium was sampled and the apical reservoir was washed 6 times with HBSS. […]
b) 24 h SFM study: Transepithelial electrical flux (TER) across the Caco-2 monolayers grown on snapwells (passage 33; 23 days old) was measured to confirm monolayer integrity before beginning the experiment. […] After 24 hours, TER readings were taken, and samples from the basolateral and apical reservoirs were removed. […]

fixed Caco-2 cells [7] = assay: Effect of thrombin cleavage on binding of GST-peptide fusions to fixed Caco-2 cells; conditions: thrombin 18 h at room temperature
Method: Binding of intact and thrombin-cleaved GST-peptide fusions to fixed Caco-2 cells was compared.
Thirty micrograms of each GST-peptide was treated with bovine thrombin (1 μ/ml; 0.4 NIH units; Sigma CN.T9681) for 18 h at room temperature in 2OmM Tris-HCl pH8.0, 150 mM NaCl, 2.5 mM CaCl2. Controls were similarly treated without addition of thrombin. Ten micrograms of each GST-peptide fusion was removed for PAGE analysis, and 10 μg of fusions were added in duplicate to the fixed Caco-2 cells before 5-fold serial dilutions (1% BPT diluent). The fusions were allowed to bind for 1 h at room temperature. Following 6 washes with 1% BPT, binding was assayed by ELISA.

[8] = system: ZElan024 (P31), ZElan018 (PAX2), ZElan021 (HAX42); assay: Crossreactive binding of GST fusions to dansylated peptides; conditions: 0.5 μg/ml concentration used in competition assays

In the case of `C[C@@H](O)[C@H](NC(=O)[C@@H](N)CCCCNS(=O)(=O)c1cccc2c(N(C)C)cccc12)C(=O)N[C@H](CCCNC(=N)N)C(=O)N[C@@H](CCCCN)C(=O)N[C@@H](CO)C(=O)N[C@@H](CO)C(=O)N[C@H](CCCNC(=N)N)C(=O)N[C@@H](CO)C(=O)N[C@@H](CC(N)=O)C(=O)N1CCC[C@H]1C(=O)N[C@H](CCCNC(=N)N)C(=O)NCC(=O)N[C@H](CCCNC(=N)N)C(=O)N[C@H](CCCNC(=N)N)C(=O)N[C@@H](Cc1c[nH]cn1)C(=O)N1CCC[C@H]1C(=O)NCC(N)=O` [ZElan053, H2N—K(dns)TrKSSrSNPrGrrHPG—CONH2] (H-K(Dansyl)T[dR]KSS[dR]SNP[dR]G[dR][dR]HPG-NH2), the “inhibition of GST-P31 binding” value (fixed Caco-2 cells [1]) is reported as “inhibited”, the “Rel. Stab.” value ([2]; rank, 1 = most stable to SIF) is reported as 1 and the remaining at 1 min, 1 mg/ml ([2]; simulated intestinal fluid (pancreatin), pH 7.5, 10,000 fold diluted SIF, 37° C., read-out: Percent Remaining at: 1 m) is reported as 100%. The remaining at 1 h, 1 mg/ml ([2]; simulated intestinal fluid (pancreatin), pH 7.5, 10,000 fold diluted SIF, 37° C., read-out: Percent Remaining at: 1 h) was 98.3%, the remaining at 3 h, 1 mg/ml ([2]; simulated intestinal fluid (pancreatin), pH 7.5, 10,000 fold diluted SIF, 37° C., read-out: Percent Remaining at: 3 h) was 98.1% and the remaining at 24 h, 1 mg/ml ([2]; simulated intestinal fluid (pancreatin), pH 7.5, 10,000 fold diluted SIF, 37° C., read-out: Percent Remaining at: 24 h) was 94%. The “binding of dansylated peptide to P100 compared to scrambled PAX2 control” value (“binding … compared to scrambled PAX2 control” below) ([3]; initial assay) was “binding at the highest dilution only”.

For “H-K(Dansyl)SDHALGTNLRSDNAKEPGDYNCCGNGNSTGRKVFNRRRPSAIPT-NH2 (cysteines drawn unpaired) [ZElan021]”, the “inhibition of GST-HAX42 binding” value (fixed Caco-2 cells [1]) was “not inhibited”, the “binding … compared to scrambled PAX2 control” value ([3]; initial assay) was “strong binding” and the “Binding value at 20 μg/ml” value ([4]; HAX42 peptides) was 1.00. For the same compound, the “Binding value at 25 μg/ml” value ([4]; HAX42 peptides, first 25 μg/ml column) was 1.00, the “Binding value at 50 μg/ml” value ([4]; HAX42 peptides, first 50 μg/ml column) was 1.00 and the “Binding value at 25 μg/ml” value ([4]; HAX42 peptides, second 25 μg/ml column) was 1.00. For the same compound, the “Binding value at 50 μg/ml” value ([4]; HAX42 peptides, second 50 μg/ml column) was 1.00 and the “Binding value at 25 μg/ml” value ([4]; HAX42 peptides, third 25 μg/ml column) was 1.00.

With “H-K(Dansyl)STPPSREAYSRPYSVDSDSDTNAKHSSHNRRLRTRSRPNG-NH2 [ZElan018]” the “inhibition of GST-HAX42 binding” value (fixed Caco-2 cells [1]) was “inhibited”, the “binding … compared to scrambled PAX2 control” value ([3]; repeat assay) was “indistinguishable from the scrambled PAX2 control” and the “Binding value at 20 μg/ml” value ([4]; PAX2 peptides, first 20 μg/ml column) was −0.33. For the same compound, the “Binding value at 50 μg/ml” value ([4]; PAX2 peptides, first 50 μg/ml column) was 0.95, the “Binding value at 20 μg/ml” value ([4]; PAX2 peptides, second 20 μg/ml column) was 1.07 and the “Binding value at 50 μg/ml” value ([4]; PAX2 peptides, second 50 μg/ml column) was 1.01.

In the case of “gst-RYKHDIGCDAGVDKKSSSVRGGCGAHSSPPRAGRGPRGTMVSRL [GST-DCX8]”, the “binding to fixed Caco-2 or C2BBe1 cells relative to GST control” value [5] is reported as “bound fixed Caco-2 or C2BBe1 cells”, the “flux relative to GST alone” value [6] is reported as “higher flux than GST alone” and the “effect of thrombin cleavage on detection of binding” value (fixed Caco-2 cells [7]) is reported as “significantly reduced detection of binding”.

In the case of “gst-SARDSGPAEDGSRAVRLNGVENANTRKSSRSNPRGRRHP [GST-P31]”, the “binding to fixed Caco-2 or C2BBe1 cells relative to GST control” value [5] is reported as “bound fixed Caco-2 or C2BBe1 cells”, the “crossreactive binding to ZElan024 (P31) and ZElan018 (PAX2)” value [8] is reported as “no crossreactive binding” and the “flux relative to GST alone” value [6] is reported as “higher flux than GST alone”.
